{"source": "paper PMC5602130", "about": "“Food and Sex-Related Impacts on the Pharmacokinetics of a Single-Dose of Ginsenoside Compound K in Healthy Subjects” (Frontiers in Pharmacology, 2017)", "key": {"[1]": {"experiment": "Food-effect two-period crossover trial: plasma pharmacokinetics after a single 200 mg oral dose of Ginsenoside CK Tablets", "assay_type": "in vivo, human", "conditions": "for AUC(0-inf) / AUC(0-t) / Tmax / Cmax / half-life / MRT inf / MRT last: human, plasma, po, 200 mg; for AUC(0-inf) / AUC(0-t) / Tmax / Cmax / half-life / MRT inf / MRT last / V/F: single oral 200 mg CK; for Tmax: median (range); for Cmax: read-out: Cmax; for half-life: read-out: t1/2 (converted)", "procedure": "The food-effect trial was an open-label, randomized, two-period, two-treatment crossover trial, carried out from 15 January to 31 March 2015. Subjects (n = 24) were admitted to the clinical facility (Center of Clinical Pharmacology, the Third Xiangya Hospital, Central South University, Changsha, China) and randomized to receive a single 200 mg oral dose of Ginsenoside CK Tablets (4 × 50 mg tablets) either after a 10 h-fasting period or within 30 min after beginning the consumption of a recommended high-fat, high calorie breakfast (150 calories of protein, 250 calories of carbohydrates, 500 to 600 calories of fat; total calories approximately 800–1,000). Tablets were administered with 250 mL of water, to each subject, in each treatment period. Drinking was prohibited for 2 h before and after medication. Apart from this, the amount and time of drinking were not strictly controlled. Subjects had unified, standard meals 4 and 10 h after drug administration. The alternate treatment was conducted after a 14-day washout period.\nSerial blood samples (5 mL) for PK assessment were collected from an indwelling catheter or by direct venipuncture prior to the administration (t = 0) and 0.25, 0.5, 1, 1.5, 2, 2.5, 3, 3.5, 4, 5, 6, 8, 12, 24, 36, 48, 72, and 96 h after the administration of ginsenoside CK. We inferred that these sampling times were sufficient for this trial, based on international guidelines (FDA, [2003]; CFDA, [2005]) and our previous results, since the sampling time is longer than at least three terminal half-lives of the drug. Additionally, the mean plasma concentrations of both CK and 20(S)-PPD at 96 h were considerably <1/20 of their Cmax even when the single oral dose at 800 mg (unpublished). Plasma was separated in blood collection tubes by centrifugation (3,000 rpm, 10 min) at 4°C within 1 h after sampling, transferred to labeled storage tubes and stored at −70°C pending workup and analysis.\nDescriptive statistics of PK parameters were calculated using established non-compartmental methods, utilizing the WinNonLin version 6.1 software (Pharsight Corporation, USA). The PK parameters determined for each participant included apparent terminal half-life (t1/2), maximum plasma concentration (Cmax), time to Cmax (tmax), area under the plasma concentration-time curve from the time of administration up to the last time point with a measurable concentration post-dose (AUClast), AUC extrapolated to infinity (AUCinf), apparent volume of distribution (V/F), apparent plasma clearance (CL/F) after extravascular administration, mean residence time (MRTlast and MRTinf), and the cumulative excretion rate from urine. The t1/2 was estimated as (ln2)/K, where K represented the slope of the terminal phase of plasma concentration-time profile and was assessed with a weighting factor of 1, using least squares (log-linear regression of at least three data points). The Cmax and tmax were obtained from experimental observations. The values of AUC were calculated using conventional trapezoidal and log-trapezoidal methods and the extrapolated area (Rowland and Tozer, [1995]). CL/F and V/F were calculated as dose/AUCinf and (CL/F)/K, respectively. MRT was calculated as MRT = AUMC/AUC, where AUMC is the area under the first moment curve. The cumulative excretion rate was calculated as the amount of unchanged drug over a time interval in the urine divided by dose, and was expressed as a percentage.\nAll samples were detected using a LC-MS/MS (API 4000, ABI Company, USA) method, validated at the Institute of Clinical Pharmacology, Central South University (Changsha, China). Concentrations of CK and 20(S)-PPD were measured using a triple quadrupole tandem mass spectrometer in multiple reaction monitoring (MRM) mode, via a positive electrospray ionization source at m/z 621.4→ 160.8 for the CK and m/z 461.5→425.3 for 20(S)-PPD, with a dwell time of 200 ms. […]"}, "[2]": {"set-up": "method as in unpublished", "conditions": "single oral dose at 800 mg; ref unpublished; cited from earlier work"}, "[3]": {"conditions": "geometric mean ratio FO vs. HF, n = 24"}}, "note": "Read-outs that look alike come from different tables or passages of the source. Marks after values point to notes of the source that are not given here.", "data": [{"smiles": "CC(C)=CCC[C@](C)(O)C1CC[C@]2(C)C1[C@H](O)CC1[C@@]3(C)CC[C@H](O)C(C)(C)C3CC[C@]12C", "note": "(stereo partly drawn) [20(S)-PPD, 20(S)-protopanaxadiol]", "values": [{"measurement": "lgAUClast GMR (90%CI)", "setting": "[1]; FO vs. HF (Female), n = 12", "result": "1.83 (1.27–2.64)"}, {"measurement": "lgCmax GMR (90%CI)", "setting": "[1]; FO vs. HF (Female), n = 12", "result": "1.98 (1.47–2.66)"}, {"measurement": "lgAUClast GMR (90%CI)", "setting": "[1]; FO vs. HF (Male), n = 12", "result": "1.08 (0.69–1.70)"}, {"measurement": "lgCmax GMR (90%CI)", "setting": "[1]; FO vs. HF (Male), n = 12", "result": "1.12 (0.74–1.70)"}, {"measurement": "lgAUClast GMR (90%CI)", "setting": "[1]; M vs. F (FO), n = 12", "result": "0.34 (0.15–0.75)"}, {"measurement": "lgCmax GMR (90%CI)", "setting": "[1]; M vs. F (FO), n = 12", "result": "0.48 (0.23–0.99)"}, {"measurement": "lgAUClast GMR (90%CI)", "setting": "[1]; M vs. F (HF), n = 12", "result": "0.57 (0.23–1.41)"}, {"measurement": "lgCmax GMR (90%CI)", "setting": "[1]; M vs. F (HF), n = 12", "result": "0.84 (0.38–1.84)"}, {"measurement": "AUC(0-inf)", "setting": "[1]; both sexes, FO, all subjects", "result": "228 ± 96.1", "unit": "ng·h/mL"}, {"measurement": "AUC(0-t)", "setting": "[1]; both sexes, FO, all subjects", "result": "161 ± 114", "unit": "ng·h/mL"}, {"measurement": "AUC(0-inf)", "setting": "[1]; both sexes, HF, all subjects", "result": "163 ± 95.4", "unit": "ng·h/mL"}, {"measurement": "AUC(0-t)", "setting": "[1]; both sexes, HF, all subjects", "result": "116 ± 97.1", "unit": "ng·h/mL"}, {"measurement": "Tmax", "setting": "[1]; female, FO", "result": 26, "unit": "h"}, {"measurement": "Tmax", "setting": "[1]; female, HF", "result": 26, "unit": "h"}, {"measurement": "Cmax", "setting": "[1]; female, FO, female", "result": "6.4 ± 2.7", "unit": "ng/mL"}, {"measurement": "half-life", "setting": "[1]; female, FO, female", "result": "19.9 ± 5.5", "unit": "h"}, {"measurement": "Cmax", "setting": "[1]; female, HF, female", "result": "3.5 ± 2.1", "unit": "ng/mL"}, {"measurement": "half-life", "setting": "[1]; female, HF, female", "result": "21.2 ± 7.6", "unit": "h"}, {"measurement": "MRT inf", "setting": "[1]; female, FO", "result": "40.7 ± 7.5", "unit": "h"}, {"measurement": "MRT last", "setting": "[1]; female, FO", "result": "36.3 ± 6.8", "unit": "h"}, {"measurement": "MRT inf", "setting": "[1]; female, HF", "result": "46.7 ± 8.6", "unit": "h"}, {"measurement": "MRT last", "setting": "[1]; female, HF", "result": "37.5 ± 5.8", "unit": "h"}, {"measurement": "AUC(0-inf)", "setting": "[1]; female, FO", "result": "225 ± 86.4", "unit": "ng·h/mL"}, {"measurement": "AUC(0-t)", "setting": "[1]; female, FO", "result": "203 ± 88.8", "unit": "ng·h/mL"}, {"measurement": "AUC(0-inf)", "setting": "[1]; female, HF", "result": "154 ± 99.5", "unit": "ng·h/mL"}, {"measurement": "AUC(0-t)", "setting": "[1]; female, HF", "result": "132 ± 97.4", "unit": "ng·h/mL"}, {"measurement": "lgAUClast GMR (90%CI)", "setting": "[1]; [3]", "result": "1.41 (1.05–1.88)"}, {"measurement": "lgCmax GMR (90%CI)", "setting": "[1]; [3]", "result": "1.49 (1.15–1.93)"}, {"measurement": "Tmax", "setting": "[1]; FO, all subjects", "result": 24.5, "unit": "h"}, {"measurement": "Tmax", "setting": "[1]; HF, all subjects", "result": 26, "unit": "h"}, {"measurement": "half-life", "setting": "[1]; FO (fasting overnight), all subjects", "result": "19.3 ± 6", "unit": "h"}, {"measurement": "Cmax", "setting": "[1]; FO, all subjects", "result": "5.7 ± 3.8", "unit": "ng/mL"}, {"measurement": "half-life", "setting": "[1]; HF (high-fat meal), all subjects", "result": "21.2 ± 9.8", "unit": "h"}, {"measurement": "Cmax", "setting": "[1]; HF, all subjects", "result": "3.7 ± 3", "unit": "ng/mL"}, {"measurement": "MRT inf", "setting": "[1]; FO, all subjects", "result": "38.5 ± 9.7", "unit": "h"}, {"measurement": "MRT last", "setting": "[1]; FO, all subjects", "result": "31.7 ± 8.4", "unit": "h"}, {"measurement": "MRT inf", "setting": "[1]; HF, all subjects", "result": "45.1 ± 9.5", "unit": "h"}, {"measurement": "MRT last", "setting": "[1]; HF, all subjects", "result": "33.8 ± 6.9", "unit": "h"}, {"measurement": "Tmax", "setting": "[1]; male, FO", "result": 23, "unit": "h"}, {"measurement": "Tmax", "setting": "[1]; male, HF", "result": 26, "unit": "h"}, {"measurement": "Cmax", "setting": "[1]; male, FO, male", "result": "4.9 ± 4.7", "unit": "ng/mL"}, {"measurement": "half-life", "setting": "[1]; male, FO, male", "result": "18.2 ± 7.1", "unit": "h"}, {"measurement": "Cmax", "setting": "[1]; male, HF, male", "result": "3.9 ± 3.8", "unit": "ng/mL"}, {"measurement": "half-life", "setting": "[1]; male, HF, male", "result": "21.2 ± 13.7", "unit": "h"}, {"measurement": "MRT inf", "setting": "[1]; male, FO", "result": "34.5 ± 12.5", "unit": "h"}, {"measurement": "MRT last", "setting": "[1]; male, FO", "result": "27 ± 7.4", "unit": "h"}, {"measurement": "MRT inf", "setting": "[1]; male, HF", "result": "42.2 ± 11.1", "unit": "h"}, {"measurement": "MRT last", "setting": "[1]; male, HF", "result": "30.2 ± 5.9", "unit": "h"}, {"measurement": "AUC(0-inf)", "setting": "[1]; male, FO", "result": "234 ± 121", "unit": "ng·h/mL"}, {"measurement": "AUC(0-t)", "setting": "[1]; male, FO", "result": "120 ± 124", "unit": "ng·h/mL"}, {"measurement": "AUC(0-inf)", "setting": "[1]; male, HF", "result": "178 ± 94.2", "unit": "ng·h/mL"}, {"measurement": "AUC(0-t)", "setting": "[1]; male, HF", "result": "100 ± 98.5", "unit": "ng·h/mL"}, {"measurement": "V/F", "setting": "[1]; FO, all subjects", "result": "30,348 ± 22,300^a L"}, {"measurement": "V/F", "setting": "[1]; FO, female", "result": "33,100 ± 27,003^c L"}, {"measurement": "V/F", "setting": "[1]; FO, male", "result": "25,304 ± 9,268^b L"}, {"measurement": "V/F", "setting": "[1]; HF, all subjects", "result": "61,539 ± 64,303^a L"}, {"measurement": "V/F", "setting": "[1]; HF, female", "result": "64,980 ± 64,481^c L"}, {"measurement": "V/F", "setting": "[1]; HF, male", "result": "55,230 ± 69,586^b L"}, {"measurement": "Mean plasma concentration at 96 h as fraction of Cmax", "setting": "[2]", "result": "< 1/20"}]}]}
